Data as given in patent US20240124470A1, “FIVE-MEMBERED RING DERIVATIVE AND MEDICAL USE THEREOF” (SICHUAN HAISCO PHARMACEUTICAL CO., LTD., priority 2020, published 2024).

How the values were obtained:
CYP2D6 = biological target: T1, CYP2D6 (Homo sapiens, UniProt P10635); assay: Cytochrome P450 isoenzyme inhibition test, human liver microsomes: CYP2D6; format: in vitro ADME; details: human liver microsomes 0.1 mg/mL; read-out: IC50, inhibitory activity on CYP2D6
T1 construct: pre-incubated with the human liver microsome solutions containing 5 enzyme mixed substrates; from tissue; host or cells: human liver microsomes
Experimental: (§1) 9. Cytochrome P450 Isoenzyme Inhibition Test Experimental objective: The inhibitory effect of the test compound on the activity of human liver microsomal cytochrome P450 isoenzyme (CYP1A2, CYP2C19, CYP2D6 and CYP3A4) was determined. Experimental operation: The test compound at an incubation concentration of 0, 0.03, 0.1, 0.3, 1, 3, 10, 30 and 100 μM was pre-incubated with the human liver microsome solutions containing 5 enzyme mixed substrates (liver microsome concentration: 0.1 mg/mL) in a water bath at 37° C. for 10 min, respectively, and then a coenzyme factor (NADPH) was added to start the reaction. After incubation in a water bath at 37° C. for 10 min, the reaction was terminated by adding glacial acetonitrile solution containing an internal standard, shaken for 1 min, centrifuged at 4° C. and 10,000 rpm for 10 min, and the supernatant was taken for LC/MS/MS analysis. The amount of metabolites produced by each CYP enzyme substrate was detected. The activity of each CYP isoenzyme was reflected by the production rate of each metabolite. […]

CYP3A4-M = biological target: T2, CYP3A4-M (Homo sapiens, UniProt P08684); assay: Cytochrome P450 isoenzyme inhibition test, human liver microsomes: CYP3A4-M; format: in vitro ADME; details: human liver microsomes 0.1 mg/mL; read-out: IC50, inhibitory activity on CYP3A4-M
T2 construct: pre-incubated with the human liver microsome solutions containing 5 enzyme mixed substrates; from tissue; host or cells: human liver microsomes
Experimental: as §1

[1] = Evaluation of pharmacokinetics in cynomolgus monkeys; format: in vivo; details: intravenous 2 mg/kg and intragastric 10 mg/kg
Experimental: Evaluation of Pharmacokinetics in Cynomolgus Monkeys
Male cynomolgus monkeys (raised in Suzhou LEOLAB Bio Tech. Co., Ltd.), weighing 3-5 kg, were fasted overnight (14-18 h), […]. On the day of the experiment, 6 male cynomolgus monkeys were divided into 2 groups, with 3 […] in each group. The test compound was administered intravenously and intragastrically at doses of 2 mg/kg and 10 mg/kg respectively. Before administration and 5 min, 15 min, 30 min, 1 h, 2 h, 4 h, 6 h, 8 h 10 h, 12 h and 24 h after administration, 1 ml of blood was collected via the limb vein, placed in an EDTAK2 centrifuge tube, and centrifuged at 6000 rpm at 4° C. for 5 min, and then the plasma was collected. The plasma sample was added to an acetonitrile solution containing an internal standard (dexamethasone, 500 ng/mL), vortexed and centrifuged at 10,000 rpm for 10 min, and the supernatant was taken for LC-MS/MS analysis. Pharmacokinetic parameters were calculated using the non-compartmental model in WinNonlin Version 8.0 (Pharsight, Mountain View, CA) pharmacokinetic software. Conclusion: The compounds of the present invention have good metabolic properties.

CYP1A2 = biological target: T3, CYP1A2 (Homo sapiens, UniProt P05177); assay: Cytochrome P450 isoenzyme inhibition test, human liver microsomes: CYP1A2; format: in vitro ADME; details: human liver microsomes 0.1 mg/mL; read-out: IC50, inhibitory activity on CYP1A2
T3 construct: pre-incubated with the human liver microsome solutions containing 5 enzyme mixed substrates; from tissue; host or cells: human liver microsomes
T3 sequence (P05177 1-516): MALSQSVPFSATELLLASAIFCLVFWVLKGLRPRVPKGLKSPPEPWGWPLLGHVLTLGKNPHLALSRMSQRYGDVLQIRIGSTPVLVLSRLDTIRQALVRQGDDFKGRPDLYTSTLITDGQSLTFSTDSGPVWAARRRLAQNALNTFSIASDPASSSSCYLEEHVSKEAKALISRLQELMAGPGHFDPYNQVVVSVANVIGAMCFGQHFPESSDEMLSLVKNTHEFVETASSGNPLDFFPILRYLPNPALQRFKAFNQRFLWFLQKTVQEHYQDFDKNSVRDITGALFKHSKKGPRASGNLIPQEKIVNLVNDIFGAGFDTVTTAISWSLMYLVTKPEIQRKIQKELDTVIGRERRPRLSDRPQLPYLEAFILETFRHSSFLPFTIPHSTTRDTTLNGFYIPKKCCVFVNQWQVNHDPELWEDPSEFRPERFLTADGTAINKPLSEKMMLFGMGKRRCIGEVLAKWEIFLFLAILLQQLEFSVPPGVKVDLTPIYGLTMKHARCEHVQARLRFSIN
Experimental: as §1

hERG potassium channel = biological target: T4, hERG potassium channel (Homo sapiens, UniProt Q12809); assay: Effects on hERG potassium channels, manual whole cell patch-clamp in CHO cells; format: cell-based; details: hERG potassium current, room temperature
T4 construct: expressed in transfected cells
Source text: 2. Effects of the Compounds on hERG Potassium Channels
Experimental platform: electrophysiological manual patch-clamp system
Cell line: Chinese hamster ovary (CHO) cells stably expressing hERG potassium ion channel
Experimental method: For CHO (Chinese Hamster Ovary) cells stably expressing hERG potassium channel, whole cell patch-clamp technique was used to recorded hERG potassium channel current at room temperature in this experiment. The glass microelectrode is made of a glass electrode blank (BF150-86-10, Sutter) by a puller. The tip resistance after filling the liquid in the electrode is about 2-5 MΩ. The glass microelectrode can be connected to the patch-clamp amplifier by inserting the glass microelectrode into an amplifier probe. The clamping voltage and data recording are controlled and recorded by the pClamp 10 software through a computer. The sampling frequency is 10 kHz, and the filtering frequency is 2 kHz. After the whole cell records were obtained, the cells were clamped at −80 mV, and the step voltage that induced the hERG potassium current (IhERG) was depolarized from −80 mV to +20 mV for 2 s, then repolarized to −50 mV, and returned to −80 mV after 1 s. This voltage stimulation was given every 10 s, and the administration process was started after the hERG potassium current was confirmed to be stable (at least 1 minute). The compound was administered for at least 1 minute at each test concentration, and at least 2 cells (n≥2) were tested at each concentration.
Data analysis processing was carried out by using pClamp 10, GraphPad Prism 5 and Excel software. The inhibition degree of hERG potassium current (peak value of hERG tail current induced at −50 mV) at different compound concentrations was calculated by the following formula: Inhibition %=[1−(I/Io)]×100%.
Among the formula, Inhibition % represents the percentage of inhibition of hERG potassium current by the compound, and I and Io represent the amplitude of hERG potassium current after and before dosing, respectively.
Compound IC50 was calculated using GraphPad Prism 5 software by fitting according to the following equation:
Y=Bottom+(Top−Bottom)/(1+10^((LogIC50−X)×HillSlope))
Among the equation, X represents the Log value of the tested concentration of the test sample, Y represents the inhibition percentage at the corresponding concentration, and Bottom and Top represent the minimum and maximum inhibition percentage, respectively.

T1 sequence (P10635 whole entry): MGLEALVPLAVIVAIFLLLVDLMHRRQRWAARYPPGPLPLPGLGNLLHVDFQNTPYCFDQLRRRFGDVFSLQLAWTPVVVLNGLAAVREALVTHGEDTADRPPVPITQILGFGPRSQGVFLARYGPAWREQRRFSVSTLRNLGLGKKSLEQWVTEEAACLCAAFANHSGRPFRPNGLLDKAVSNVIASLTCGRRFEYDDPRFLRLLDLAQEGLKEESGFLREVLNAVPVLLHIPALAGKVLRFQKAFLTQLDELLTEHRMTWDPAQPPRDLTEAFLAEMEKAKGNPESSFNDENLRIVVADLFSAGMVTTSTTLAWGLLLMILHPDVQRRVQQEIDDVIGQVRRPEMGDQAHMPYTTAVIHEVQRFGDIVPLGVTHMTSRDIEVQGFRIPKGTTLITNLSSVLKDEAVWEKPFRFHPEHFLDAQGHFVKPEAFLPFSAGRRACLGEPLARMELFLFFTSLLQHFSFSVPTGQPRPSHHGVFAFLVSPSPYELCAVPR
T4 sequence (Q12809 whole entry): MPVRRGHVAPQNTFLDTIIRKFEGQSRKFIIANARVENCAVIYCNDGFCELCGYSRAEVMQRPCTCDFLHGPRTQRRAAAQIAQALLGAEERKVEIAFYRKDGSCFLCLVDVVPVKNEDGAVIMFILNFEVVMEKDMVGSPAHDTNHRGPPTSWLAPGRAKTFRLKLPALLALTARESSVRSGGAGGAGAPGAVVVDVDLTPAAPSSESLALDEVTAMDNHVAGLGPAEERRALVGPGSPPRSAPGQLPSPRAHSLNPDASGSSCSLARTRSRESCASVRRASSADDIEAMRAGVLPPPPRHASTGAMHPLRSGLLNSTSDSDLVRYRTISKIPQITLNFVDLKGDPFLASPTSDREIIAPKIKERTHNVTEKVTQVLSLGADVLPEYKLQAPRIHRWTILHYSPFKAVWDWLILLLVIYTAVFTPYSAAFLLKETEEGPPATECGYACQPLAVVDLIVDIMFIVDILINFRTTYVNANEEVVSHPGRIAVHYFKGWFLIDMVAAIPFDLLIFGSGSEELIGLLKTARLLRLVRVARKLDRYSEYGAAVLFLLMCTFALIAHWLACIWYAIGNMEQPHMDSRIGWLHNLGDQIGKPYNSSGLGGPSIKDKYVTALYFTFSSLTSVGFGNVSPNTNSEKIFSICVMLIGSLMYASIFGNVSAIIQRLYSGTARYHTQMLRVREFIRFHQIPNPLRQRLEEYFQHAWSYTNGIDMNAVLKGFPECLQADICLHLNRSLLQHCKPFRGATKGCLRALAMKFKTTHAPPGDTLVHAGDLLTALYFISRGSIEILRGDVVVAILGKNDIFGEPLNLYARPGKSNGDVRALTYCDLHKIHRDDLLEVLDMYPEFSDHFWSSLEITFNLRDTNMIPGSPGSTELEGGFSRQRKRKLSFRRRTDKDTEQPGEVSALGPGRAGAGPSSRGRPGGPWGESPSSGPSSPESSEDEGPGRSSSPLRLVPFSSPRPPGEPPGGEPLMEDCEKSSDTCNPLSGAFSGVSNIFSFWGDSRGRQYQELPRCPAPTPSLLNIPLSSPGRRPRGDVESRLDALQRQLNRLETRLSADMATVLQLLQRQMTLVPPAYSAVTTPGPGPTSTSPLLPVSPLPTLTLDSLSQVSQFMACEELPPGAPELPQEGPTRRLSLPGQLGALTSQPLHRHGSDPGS
T2 sequence (P08684 whole entry): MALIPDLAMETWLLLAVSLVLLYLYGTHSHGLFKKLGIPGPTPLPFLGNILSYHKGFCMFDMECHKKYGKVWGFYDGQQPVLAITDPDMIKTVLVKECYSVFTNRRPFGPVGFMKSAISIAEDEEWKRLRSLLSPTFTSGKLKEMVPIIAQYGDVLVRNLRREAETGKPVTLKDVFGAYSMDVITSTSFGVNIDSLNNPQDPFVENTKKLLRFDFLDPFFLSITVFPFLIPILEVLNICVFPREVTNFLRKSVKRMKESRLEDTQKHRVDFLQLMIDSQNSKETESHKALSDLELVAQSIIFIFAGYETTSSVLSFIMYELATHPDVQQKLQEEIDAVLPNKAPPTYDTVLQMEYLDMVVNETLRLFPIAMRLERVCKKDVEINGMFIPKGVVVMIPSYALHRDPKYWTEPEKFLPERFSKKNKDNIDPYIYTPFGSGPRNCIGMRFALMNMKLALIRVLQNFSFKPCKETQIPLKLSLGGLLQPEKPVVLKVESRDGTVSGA

IC50 (CYP2D6): > 50 µM | IC50 (CYP3A4-M): > 50 µM | clearance rate in monkeys [1]: low clearance rate | half-life in monkeys [1]: long half-life | IC50 (CYP1A2): > 50 µM
SMILES: N#Cc1ccc(COc2cccc(-c3ccc(Cc4nc5sc(C(=O)O)cc5n4C[C@@H]4CCO4)c(F)c3)n2)c(F)c1 [Compound 6, (S)-2-(4-(6-((4-cyano-2-fluorobenzyl)oxy)pyridin-2-yl)-2-fluorobenzyl)-1-(oxetan-2-ylmethyl)-1H-thieno[2,3-d]imidazole-5-carboxylic acid]
IC50 (hERG potassium channel): > 40 µM
